According to article PMC9405123, “Design, Synthesis and Mechanistic Studies of Novel Isatin-Pyrazole Hydrazone Conjugates as Selective and Potent Bacterial MetAP Inhibitors” (Antibiotics, 2022):
≈ marks a conversion by molar mass, not a printed value. Where two headings read alike, the source gives them in different places.

Columns and labels:
EcMetAP1 = test system: EcMetAP1; parameters: method as in PMID 15506752; details: Co(II) as the cofactor; cited from earlier work
LG71 = assay: MIC on environmental MDR isolate (microdilution); details: Enterobacter cloacae
K. pneumoniae [1] = assay: Combination study with AMP or CIP
E. coli [2] = assay: Growth inhibition screening (broth dilution); format: cell-based, Escherichia coli; details: Escherichia coli
Protocol: (§1) In vitro screening of the compounds (PS1–14) was performed to assess the antibacterial activity against three Gram-positive (Staphylococcus aureus, Enterococcus faecalis and Bacillus subtilis,) and three Gram-negative (Pseudomonas aeruginosa, Klebsiella pneumonia and Escherichia coli) bacterial strains using the standard NCCLS broth dilution assay. The study’s standard drugs were ciprofloxacin (CIP) and ampicillin (AMP). Compounds were dissolved in a polar solvent (DMSO) and distributed into a 96-well plate in 200 µL of nutrient broth medium, with a final concentration of the compounds […] in each well. The bacterial cells (about 2.5 × 10^5 cells/mL) were inoculated into each well and incubated at 37 °C overnight. After incubation, the growth was measured by turbidity of the culture at 590 nm by spectrophotometer.

JST68 = assay: MIC on environmental MDR isolate (microdilution); details: Escherichia coli
S. aureus [3] = assay: Combination study with AMP or CIP
E. faecalis [4] = assay: Minimum inhibitory concentration (broth dilution); format: cell-based; details: Enterococcus faecalis, alone
S. aureus [5] = assay: Growth inhibition screening (broth dilution); format: cell-based, Staphylococcus aureus; details: Staphylococcus aureus
Protocol: as §1

HK91 = assay: MIC on environmental MDR isolate (microdilution); details: Ralstonia
P. aeruginosa [6] = assay: Growth inhibition screening (broth dilution); format: cell-based, Pseudomonas aeruginosa; details: Pseudomonas aeruginosa
Protocol: as §1

B. subtilis [7] = assay: Minimum inhibitory concentration (broth dilution); format: cell-based; details: Bacillus subtilis, alone
JST61 = assay: MIC on environmental MDR isolate (microdilution); details: Pantoea agglomerans
HK41 = assay: MIC on environmental MDR isolate (microdilution); details: Enterobacter cloacae
LG24 = assay: MIC on environmental MDR isolate (microdilution); details: Escherichia coli
LG33 = assay: MIC on environmental MDR isolate (microdilution); details: Enterobacter
S. aureus [8] = assay: Minimum inhibitory concentration (broth dilution); format: cell-based; details: Staphylococcus aureus, alone
HK1 = assay: MIC on environmental MDR isolate (microdilution)
SD5 = assay: MIC on environmental MDR isolate (microdilution); details: Escherichia coli, isolate SD5 E. coli
LG20 = assay: MIC on environmental MDR isolate (microdilution); details: Enterobacter, isolate LG20 Enterobacter sp.
LG51 = assay: MIC on environmental MDR isolate (microdilution); details: Escherichia coli
JST71 = assay: MIC on environmental MDR isolate (microdilution); details: Enterobacter
HK32 = assay: MIC on environmental MDR isolate (microdilution); details: Enterobacter cloacae
E. coli [9] = assay: Combination study with AMP or CIP; details: combination PS9 + AMP
JST28 = assay: MIC on environmental MDR isolate (microdilution); details: Escherichia coli
SD6 = assay: MIC on environmental MDR isolate (microdilution); details: Escherichia coli, isolate SD6 E. coli
SH34 = assay: MIC on environmental MDR isolate (microdilution); details: Serratia marcescens
E. faecalis [10] = assay: Combination study with AMP or CIP
P. aeruginosa [11] = assay: Combination study with AMP or CIP; details: combination PS9 + AMP
JST78 = assay: MIC on environmental MDR isolate (microdilution); details: Escherichia coli
K. pneumoniae [12] = assay: Growth inhibition screening (broth dilution); format: cell-based, Klebsiella pneumonia; details: Klebsiella pneumoniae
Protocol: as §1

E. faecalis [13] = assay: Growth inhibition screening (broth dilution); format: cell-based, Enterococcus faecalis; details: Enterococcus faecalis
Protocol: as §1

K. pneumoniae [14] = assay: Minimum inhibitory concentration (broth dilution); format: cell-based, Klebsiella pneumonia; details: Klebsiella pneumoniae, alone, read-out: MIC
HK43 = assay: MIC on environmental MDR isolate (microdilution); details: Exiguobacterium mexicanum
B. subtilis [15] = assay: Growth inhibition screening (broth dilution); format: cell-based, Bacillus subtilis; details: Bacillus subtilis
Protocol: as §1

P. aeruginosa [16] = assay: Minimum inhibitory concentration (broth dilution); format: cell-based; details: Pseudomonas aeruginosa, alone
JST63 = assay: MIC on environmental MDR isolate (microdilution)
E. coli [17] = assay: Minimum inhibitory concentration (broth dilution); format: cell-based, Escherichia coli; details: alone
SH28 = assay: MIC on environmental MDR isolate (microdilution); details: Aeromonas caviae
LG1 = assay: MIC on environmental MDR isolate (microdilution)
[18] = test system: human red blood cells (hRBCs); assay: Hemolytic activity; format: cell-based
Protocol: The compound PS9 was evaluated for hemolytic effect on human RBCs. In brief, RBCs suspension 10% (v/v) cleaned with 1 × PBS and resuspended again in 1 × PBS (pH 7.4). […] The samples were centrifuged and absorbance of the supernatant was taken at 415 nm to obtain the percentage of RBCs lysis. Triton X-100 with 1% (v/v) was used as a positive control. Percentage of RBCs lysis was calculated as:% RBCs lysis = (OD415nm sample − OD415nm PBS)/(OD415nm Triton X-100 1% − OD415nm PBS)(1)

## O=C(Nc1nccs1)C(=O)NC1CCCC1 [A, N1-cyclopentyl-N2-(thiazol-2-yl)oxalamide]
EcMetAP1
  IC50: 67 nM

## CC1(C)S[C@@H]2[C@H](NC(=O)[C@H](N)c3ccccc3)C(=O)N2[C@H]1C(=O)O [AMP, ampicillin, reference compound]
LG71
  MIC: 512 µg/mL (≈ 1470 µM)
K. pneumoniae [1]; combination PS6 + AMP
  MIC in Combination: 0.25 µg/mL
K. pneumoniae [1]; combination PS9 + AMP
  MIC in Combination: 0.5 µg/mL
E. coli [2]
  inhibition at 250 µg/mL: 100%
JST68
  MIC: 64 µg/mL (≈ 183 µM)
S. aureus [3]; combination PS6 + AMP
  MIC in Combination: 0.0625 µg/mL
S. aureus [3]; combination PS9 + AMP
  MIC in Combination: 0.0625 µg/mL
E. faecalis [4]
  MIC: 16 µg/mL (≈ 45.8 µM)
S. aureus [5]
  inhibition at 250 µg/mL: 100%
HK91
  MIC: 8 µg/mL (≈ 22.9 µM)
P. aeruginosa [6]
  inhibition at 250 µg/mL: 100%
B. subtilis [7]
  MIC: 0.25 µg/mL (≈ 0.715 µM)
JST61
  MIC: 128 µg/mL (≈ 366 µM)
HK41
  MIC: 256 µg/mL (≈ 733 µM)
LG24
  MIC: < 2 µg/mL
LG33
  MIC: 8 µg/mL (≈ 22.9 µM)
S. aureus [8]
  MIC: 0.25 µg/mL (≈ 0.715 µM)
HK1
  MIC: 256 µg/mL (≈ 733 µM)
SD5
  MIC: 32 µg/mL (≈ 91.6 µM)
LG20
  MIC: 32 µg/mL (≈ 91.6 µM)
LG51
  MIC: 1020 µg/mL (≈ 2930 µM)
JST71
  MIC: 1020 µg/mL (≈ 2930 µM)
HK32
  MIC: 1020 µg/mL (≈ 2930 µM)
E. coli [9]
  MIC in Combination: 0.25 µg/mL
JST28
  MIC: 1020 µg/mL (≈ 2930 µM)
SD6
  MIC: 1000 µg/mL (≈ 2860 µM)
SH34
  MIC: 8 µg/mL (≈ 22.9 µM)
E. faecalis [10]; combination PS6 + AMP
  MIC in Combination: 0.50 µg/mL
E. faecalis [10]; combination PS9 + AMP
  MIC in Combination: 0.5 µg/mL
P. aeruginosa [11]
  MIC in Combination: 0.25 µg/mL
JST78
  MIC: > 1020 µg/mL
K. pneumoniae [12]
  inhibition at 250 µg/mL: 100%
E. faecalis [13]
  inhibition at 250 µg/mL: 100%
K. pneumoniae [14]
  MIC: 2 µg/mL (≈ 5.72 µM)
HK43
  MIC: 1020 µg/mL (≈ 2930 µM)
B. subtilis [15]
  inhibition at 250 µg/mL: 100%
P. aeruginosa [16]
  MIC: 1 µg/mL (≈ 2.86 µM)
JST63
  MIC: 128 µg/mL (≈ 366 µM)
E. coli [17]; Escherichia coli, read-out: MIC
  MIC: 1 µg/mL (≈ 2.86 µM)
E. coli [17]
  MIC: 1 µg/mL (≈ 2.86 µM)
SH28
  MIC: 16 µg/mL (≈ 45.8 µM)

## CO/N=C(\C(=O)N[C@@H]1C(=O)N2C(C(=O)O)=C(COC(C)=O)CS[C@H]12)c1csc(N)n1 [CTX, cefotaxime]
LG71
  MIC: 1020 µg/mL (≈ 2250 µM)
JST68
  MIC: 512 µg/mL (≈ 1120 µM)
HK91
  MIC: 8 µg/mL (≈ 17.6 µM)
JST61
  MIC: 256 µg/mL (≈ 562 µM)
HK41
  MIC: 32 µg/mL (≈ 70.3 µM)
LG24
  MIC: 64 µg/mL (≈ 141 µM)
LG33
  MIC: 8 µg/mL (≈ 17.6 µM)
HK1
  MIC: 128 µg/mL (≈ 281 µM)
SD5
  MIC: 1000 µg/mL (≈ 2200 µM)
LG20
  MIC: 32 µg/mL (≈ 70.3 µM)
LG51
  MIC: 64 µg/mL (≈ 141 µM)
LG1
  MIC: 16 µg/mL (≈ 35.1 µM)
JST71
  MIC: 1020 µg/mL (≈ 2250 µM)
HK32
  MIC: 256 µg/mL (≈ 562 µM)
JST28
  MIC: 8 µg/mL (≈ 17.6 µM)
SD6
  MIC: 1000 µg/mL (≈ 2200 µM)
SH34
  MIC: 8 µg/mL (≈ 17.6 µM)
JST78
  MIC: 128 µg/mL (≈ 281 µM)
HK43
  MIC: 1020 µg/mL (≈ 2250 µM)
JST63
  MIC: 128 µg/mL (≈ 281 µM)
SH28
  MIC: < 2 µg/mL

## Triton-X 100 [reference compound]
[18]
  hemolysis: 100%
